Where a name gives a salt, the structure may show the parent alone.
Assays:
TS patients = settings: Tourette's Syndrome patients; cited from earlier work
[1] = test system: Sprague-Dawley derived rats; assay: Prevention of sensitized locomotor stimulant response to nicotine (Example 1); assay type: in vivo, rat; settings: lower doses; nicotine test on day 9
[2] = test system: vagotomized, pithed and artificially respired rats; assay: Pithed rat: plasma catecholamine responses, HPLC (Example 3); assay type: in vivo
Description: The aim of the study was to determine whether mecamylamine and its stereoisomers have any effect on pressor responses and increases in plasma catecholamines in response to sympathetic nerve stimulation.
In the vagotomized, pithed and artificially respired rats (with oxygen mixed with air), the cardiovascular responses to test compounds measured were mean arterial blood pressure and heart rate; and the catecholamine responses measured were plasma norepinephrine, epinephrine and dopamine. These variables were measured in rats at rest and after electrical stimulation of sympathetic outflow at 0.2 Hz, 0.8 Hz, and 2.2 Hz for a one-minute duration (50 V, 1 msec pulse), and before and after administration of vehicle or a drug. Catecholamine assays were performed by specific HPLC testing. […] Statistical analysis were applied as appropriate.
Plasma catecholamine (CA) levels—norepinephrine (NE), epinephrine (EPI), and dopamine (DA)—were measured by HPLC with an electrochemical detector following administration of doses of all forms of mecamylamine.

Sprague-Dawley rats [3] = assay: Mecamylamine blockade of nicotine-induced seizures (Example 2); assay type: in vivo, rat; settings: for nicotine-induced seizures (percentage of rats that seized): 0.1, 0.3, 1.0 mg/kg s.c. 15 min before nicotine 3.6 mg/kg s.c.; for duration and severity of seizure vs saline comparison group / seizure latency vs saline control: 0.3 and 1.0 mg/kg s.c.
[4] = test system: vagotomized, pithed and artificially respired rats; assay: Pithed rat: cardiovascular responses to sympathetic nerve stimulation (Example 3); assay type: in vivo; settings: for stimulation-induced increases in MAP: 0.8 and 2.2 Hz stimulation, i.v. bolus; for increases in heart rate (δ HR) vs saline-treated rats: 2.2 Hz, highest dose (10 mg/kg i.v.)
human α3β4 receptors = molecular target: T1, human α3β4 receptors (Homo sapiens, UniProt P30926+P32297); assay: Two-electrode voltage clamp, Xenopus oocytes expressing α3β4 receptors (Example 4); assay type: cell-based
T1 construct: expressed in transfected cells; host or cells: Xenopus laevis oocytes, cRNA injection

[5] = molecular target: NMDA receptor subunits NR1 and NR2b (Homo sapiens, UniProt Q05586+Q13224); assay: Oocytes coexpressing NMDA receptor subunits (Example 4); assay type: cell-based; settings: 100 μM; reversible after a 5-min wash
Description: (§1) For electrophysiology, oocyte recordings were made with an oocyte amplifier (e.g., Warner Instruments, Hamden, Conn., No. OC-725C) and RC-8 recording chamber. Oocytes were placed in the recording chamber with a total volume of about 0.6 ml and perfused at room temperature by frog Ringer's solution (115 mM NaCl, 2.5 mM KCl, 10 mM HEPES pH 7.3, and 1.8 mM CaCl2) containing 1 µM atropine to inhibit potential muscarinic responses. A Mariotte flask filled with Ringer's solution was used to maintain a constant hydrostatic pressure for drug delivery and washes. Drugs were diluted in perfusion solution and loaded into a 2 ml loop at the terminus of the perfusion line. A bypass of the drug-loading loop allowed bath solution to flow continuously while the drug loop was loaded. The drug application was synchronized with data acquisition by using a 2-way electronic valve. The rate of bath solution exchange and drug application was preferably about 6 ml/min. Current electrodes were filled with a solution containing 250 mMCsCl, 250 mM CsF and 100 mM EGTA and had resistances of 0.5-2 MΩ. Voltage electrodes were filed with 3M KCl and have resistances of 1-3MΩ. Oocytes with resting membrane potentials more positive than −30 mV were not used.
(§2) Holding currents immediately before agonist application were subtracted from measurements of the peak response to agonist. […]

[6] = molecular target: hNET (norepinephrine transporter) (Homo sapiens, UniProt P23975); assay: [125I]RTI-55 binding, HEK293-hNET membranes (Example 5); settings: [125I]RTI-55 competition
[7] = molecular target: hDAT (dopamine transporter) (Homo sapiens, UniProt Q01959); assay: [125I]RTI-55 binding, HEK293-hDAT membranes (Example 5); settings: [125I]RTI-55 competition
Swiss-Webster mice [8] = assay: Locomotor depression test, compound alone (Example 6); assay type: in vivo, mouse
human α3β2 receptors = molecular target: T2, human α3β2 receptors (Homo sapiens, UniProt P17787+P32297); assay: Two-electrode voltage clamp, Xenopus oocytes expressing α3β2 receptors (Example 4); assay type: cell-based
T2 construct: expressed in transfected cells; host or cells: Xenopus laevis oocytes, cRNA injection

human α7 receptors = molecular target: T3, human α7 receptors (Homo sapiens, UniProt P36544); assay: Two-electrode voltage clamp, Xenopus oocytes expressing α7 receptors (Example 4); assay type: cell-based
T3 construct: expressed in transfected cells; host or cells: Xenopus laevis oocytes, cRNA injection

nicotine receptors = assay: Oocyte electrophysiology, recovery time course and agonist test, receptor subtype not specified (Example 4); assay type: cell-based, human
Sprague-Dawley rats [9] = assay: Effects of mecamylamine alone at high dose: seizures and spontaneous locomotor activity (Example 2); assay type: in vivo, rat; settings: 10 mg/kg s.c., 30 min
Description: Male Sprague-Dawley rats (n=96) weighing between 200 and 250 grams upon arrival were used for this study (Harlan Laboratories, Ind.). The rats were housed two per cage, allowed one week to acclimate to animal facility before testing, kept on a reverse lighting schedule (7:00-19:00 lights off), and allowed free access to food and water. Testing occurred between 10:00 a.m. and 3:00 p.m. in a dimly lit room maintained at 22° C. The experimental procedures carried out in this study were in compliance with the Guide for the Care and Use of Laboratory Animals (National Research Council, 1996) and had the prior approval of the University of South Florida Institutional Animal Care and Use Committee.
Observation of seizures and locomotor recordings were carried out in clear acrylic 41×41×30 cm test chambers inside Digiscan activity monitors (Accuscan, Inc.). Each monitor employs two arrays of infrared photocell beams (8×8 photocells, model RXYZCM-8) to detect several parameters of the rat's movement both horizontally and vertically. Data were collected in 5-min bins during testing.
All drugs were dissolved in physiological saline, and nicotine was adjusted to pH with HCl to 7.40. […] All doses are expressed as the free base of the drug. […]
Data was analyzed using a one-way analysis of variance followed by Fishers least significance test for multiple comparisons. […]

[10] = molecular target: hSERT (serotonin transporter) (Homo sapiens, UniProt P31645); assay: [125I]RTI-55 binding, HEK293-hSERT membranes (Example 5); settings: [125I]RTI-55 competition
[11] = molecular target: α1β1δε mouse muscle receptors (Mus musculus, UniProt P02716+P04756+P09690+P20782); assay: Oocyte electrophysiology, muscle receptor selectivity (Example 4); assay type: cell-based
Description: as §1, §2

human α4β2 receptors = molecular target: T4, human α4β2 receptors (Homo sapiens, UniProt P17787+P43681); assay: Two-electrode voltage clamp, Xenopus oocytes expressing α4β2 receptors (Example 4); assay type: cell-based
T4 construct: expressed in transfected cells; host or cells: Xenopus laevis oocytes, cRNA injection
Description: Voltage dependence and binding reversibility also were determined. Mature female Xenopus laevis African toads were used as a source of oocytes. After linearization and purification of cloned cDNAs, RNA transcripts were prepared in vitro using the appropriate mMessage mMachine® kit from Ambion Inc. (Austin Tex.). Harvested oocytes were treated with collagenase (Worthington Biochemical Corporation, Freehold N.J.) for two hr at room temperature in calcium-free solution. Subsequently stage 5 oocytes were isolated and injected with 50 nL each of a mixture of the appropriate subunit(s) cRNAs. Recordings were made about 1-7 days after cRNA injection.
as §1, with “Voltage electrodes were filed with 3M KCl and have resistances of 1-3MΩ. Oocytes with resting membrane potentials more positive than −30 mV were not used.” left out
For experiments assessing voltage-dependence of drug inhibition, oocytes were initially voltage clamped at a holding potential of −40 mV or −90 mV and […] control application of ACh alone was delivered. […] Residual inhibition was evaluated with a subsequent application of ACh alone at the test potential, after a 5-min wash period.

Swiss-Webster mice [12] = assay: Cocaine interaction study, locomotor activity (Example 6); assay type: in vivo, mouse; settings: 10 mg/kg ip + cocaine 20 mg/kg ip
[13] = 0.1 mg/kg s.c., nicotine 3.6 mg/kg
[14] = after co-application of 10 μM with ACh

T2 sequence (P32297 32-505): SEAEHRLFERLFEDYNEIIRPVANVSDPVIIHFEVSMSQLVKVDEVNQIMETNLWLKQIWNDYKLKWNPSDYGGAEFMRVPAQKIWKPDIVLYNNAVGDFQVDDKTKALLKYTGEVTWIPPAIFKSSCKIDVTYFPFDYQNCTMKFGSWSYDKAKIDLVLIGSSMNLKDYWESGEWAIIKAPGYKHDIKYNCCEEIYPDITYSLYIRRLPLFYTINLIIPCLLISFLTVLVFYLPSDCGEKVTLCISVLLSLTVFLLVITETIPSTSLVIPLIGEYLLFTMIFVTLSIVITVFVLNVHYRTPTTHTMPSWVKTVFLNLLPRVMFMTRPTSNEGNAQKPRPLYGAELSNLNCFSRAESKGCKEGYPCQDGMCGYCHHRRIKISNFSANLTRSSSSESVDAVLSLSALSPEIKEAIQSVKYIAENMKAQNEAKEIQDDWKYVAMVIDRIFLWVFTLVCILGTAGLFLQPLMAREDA
T2 sequence (P17787 26-502): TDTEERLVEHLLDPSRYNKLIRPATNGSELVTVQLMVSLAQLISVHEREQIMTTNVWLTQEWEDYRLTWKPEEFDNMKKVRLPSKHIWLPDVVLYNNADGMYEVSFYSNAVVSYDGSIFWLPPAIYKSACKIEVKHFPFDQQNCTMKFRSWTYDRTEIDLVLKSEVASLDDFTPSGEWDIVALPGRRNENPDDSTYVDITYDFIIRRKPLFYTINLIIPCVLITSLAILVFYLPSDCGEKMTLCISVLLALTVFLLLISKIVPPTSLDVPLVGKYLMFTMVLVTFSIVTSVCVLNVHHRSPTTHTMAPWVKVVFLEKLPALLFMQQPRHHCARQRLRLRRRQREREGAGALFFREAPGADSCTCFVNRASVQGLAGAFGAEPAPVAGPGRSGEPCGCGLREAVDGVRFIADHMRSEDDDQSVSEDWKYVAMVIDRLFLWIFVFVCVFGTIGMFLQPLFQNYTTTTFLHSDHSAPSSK
T4 sequence (P43681 29-627 limits assumed): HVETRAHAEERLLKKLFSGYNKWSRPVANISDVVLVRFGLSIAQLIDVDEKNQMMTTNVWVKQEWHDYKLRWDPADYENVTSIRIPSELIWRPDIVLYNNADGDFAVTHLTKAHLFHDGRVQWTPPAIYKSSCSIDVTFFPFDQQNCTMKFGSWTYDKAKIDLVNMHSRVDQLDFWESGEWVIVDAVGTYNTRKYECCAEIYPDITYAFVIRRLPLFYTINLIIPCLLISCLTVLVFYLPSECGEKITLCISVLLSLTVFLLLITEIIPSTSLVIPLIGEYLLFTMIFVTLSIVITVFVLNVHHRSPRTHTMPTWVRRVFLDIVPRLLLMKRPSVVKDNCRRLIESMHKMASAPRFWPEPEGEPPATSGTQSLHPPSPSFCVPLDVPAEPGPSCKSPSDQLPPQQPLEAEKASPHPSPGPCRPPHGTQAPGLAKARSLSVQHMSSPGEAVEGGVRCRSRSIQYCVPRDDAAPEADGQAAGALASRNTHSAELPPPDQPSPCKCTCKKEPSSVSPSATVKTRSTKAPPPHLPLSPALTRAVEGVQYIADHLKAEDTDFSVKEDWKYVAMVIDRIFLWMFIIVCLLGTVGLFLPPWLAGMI
T4 sequence (P17787 26-502): as the sequence (P17787 26-502) above
T3 sequence (P36544 23-502): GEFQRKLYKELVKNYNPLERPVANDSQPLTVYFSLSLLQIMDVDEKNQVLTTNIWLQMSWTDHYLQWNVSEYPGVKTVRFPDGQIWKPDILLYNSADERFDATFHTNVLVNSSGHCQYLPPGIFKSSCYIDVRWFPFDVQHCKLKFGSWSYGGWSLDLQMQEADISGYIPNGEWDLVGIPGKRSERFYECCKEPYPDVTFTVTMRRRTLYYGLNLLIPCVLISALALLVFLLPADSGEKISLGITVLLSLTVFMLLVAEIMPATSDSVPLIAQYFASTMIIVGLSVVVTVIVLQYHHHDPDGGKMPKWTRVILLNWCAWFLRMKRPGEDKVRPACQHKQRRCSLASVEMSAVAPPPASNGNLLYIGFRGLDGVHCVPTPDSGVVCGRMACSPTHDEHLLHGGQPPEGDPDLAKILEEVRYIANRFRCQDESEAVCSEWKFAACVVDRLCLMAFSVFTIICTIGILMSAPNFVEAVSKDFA
Chain of α1β1δε mouse muscle receptors (P04756 21-457): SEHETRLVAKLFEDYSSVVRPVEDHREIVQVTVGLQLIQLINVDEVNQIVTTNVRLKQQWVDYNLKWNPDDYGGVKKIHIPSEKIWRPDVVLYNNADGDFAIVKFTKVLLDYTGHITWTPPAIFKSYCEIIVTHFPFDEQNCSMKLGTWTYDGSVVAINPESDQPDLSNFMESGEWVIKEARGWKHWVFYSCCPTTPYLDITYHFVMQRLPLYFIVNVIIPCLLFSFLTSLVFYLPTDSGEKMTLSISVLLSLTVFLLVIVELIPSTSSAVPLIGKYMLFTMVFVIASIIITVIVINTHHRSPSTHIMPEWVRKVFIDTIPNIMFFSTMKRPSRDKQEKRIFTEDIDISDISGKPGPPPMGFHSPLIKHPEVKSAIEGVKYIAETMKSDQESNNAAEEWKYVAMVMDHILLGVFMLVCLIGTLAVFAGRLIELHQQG
Chain of α1β1δε mouse muscle receptors (P09690 24-501): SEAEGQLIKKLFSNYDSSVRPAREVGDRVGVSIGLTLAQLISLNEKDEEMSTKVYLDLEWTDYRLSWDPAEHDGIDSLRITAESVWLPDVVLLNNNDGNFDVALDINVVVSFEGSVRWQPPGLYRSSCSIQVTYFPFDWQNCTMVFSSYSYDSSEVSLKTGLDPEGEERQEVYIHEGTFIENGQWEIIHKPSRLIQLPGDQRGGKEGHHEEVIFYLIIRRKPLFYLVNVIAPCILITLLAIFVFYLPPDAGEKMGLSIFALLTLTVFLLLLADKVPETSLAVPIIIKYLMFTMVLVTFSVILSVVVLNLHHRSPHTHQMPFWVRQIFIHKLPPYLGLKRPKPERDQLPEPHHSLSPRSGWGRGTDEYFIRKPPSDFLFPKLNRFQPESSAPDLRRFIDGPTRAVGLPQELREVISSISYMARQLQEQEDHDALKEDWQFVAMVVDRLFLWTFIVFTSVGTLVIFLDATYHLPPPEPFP
Chain of α1β1δε mouse muscle receptors (P02716 25-520): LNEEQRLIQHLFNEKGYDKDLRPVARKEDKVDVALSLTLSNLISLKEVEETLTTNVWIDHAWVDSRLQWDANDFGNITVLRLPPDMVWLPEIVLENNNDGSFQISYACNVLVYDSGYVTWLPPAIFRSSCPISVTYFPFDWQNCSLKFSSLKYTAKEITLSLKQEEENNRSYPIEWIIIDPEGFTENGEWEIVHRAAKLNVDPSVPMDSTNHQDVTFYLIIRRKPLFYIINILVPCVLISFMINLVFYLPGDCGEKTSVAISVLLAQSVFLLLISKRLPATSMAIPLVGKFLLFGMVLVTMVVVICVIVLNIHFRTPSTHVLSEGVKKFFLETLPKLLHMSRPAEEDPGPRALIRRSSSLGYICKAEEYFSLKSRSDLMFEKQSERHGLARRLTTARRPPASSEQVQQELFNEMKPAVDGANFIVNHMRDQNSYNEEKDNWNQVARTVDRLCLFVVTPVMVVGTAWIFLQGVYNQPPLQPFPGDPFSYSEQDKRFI
Chain of α1β1δε mouse muscle receptors (P20782 21-493): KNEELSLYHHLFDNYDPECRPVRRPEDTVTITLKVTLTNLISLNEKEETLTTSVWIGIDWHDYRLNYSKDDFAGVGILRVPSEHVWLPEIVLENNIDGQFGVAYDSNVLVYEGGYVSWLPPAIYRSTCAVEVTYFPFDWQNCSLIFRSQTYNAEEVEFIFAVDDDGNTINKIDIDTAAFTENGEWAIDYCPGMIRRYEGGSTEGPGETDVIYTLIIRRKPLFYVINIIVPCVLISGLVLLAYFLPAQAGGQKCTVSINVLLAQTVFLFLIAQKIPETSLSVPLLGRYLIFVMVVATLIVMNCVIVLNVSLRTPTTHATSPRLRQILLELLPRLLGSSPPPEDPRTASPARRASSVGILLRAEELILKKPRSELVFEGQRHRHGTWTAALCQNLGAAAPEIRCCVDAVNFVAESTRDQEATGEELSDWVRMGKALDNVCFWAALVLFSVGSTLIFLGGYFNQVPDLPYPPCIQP
T1 sequence (P32297 32-505): as the sequence (P32297 32-505) above
T1 sequence (P30926 22-498): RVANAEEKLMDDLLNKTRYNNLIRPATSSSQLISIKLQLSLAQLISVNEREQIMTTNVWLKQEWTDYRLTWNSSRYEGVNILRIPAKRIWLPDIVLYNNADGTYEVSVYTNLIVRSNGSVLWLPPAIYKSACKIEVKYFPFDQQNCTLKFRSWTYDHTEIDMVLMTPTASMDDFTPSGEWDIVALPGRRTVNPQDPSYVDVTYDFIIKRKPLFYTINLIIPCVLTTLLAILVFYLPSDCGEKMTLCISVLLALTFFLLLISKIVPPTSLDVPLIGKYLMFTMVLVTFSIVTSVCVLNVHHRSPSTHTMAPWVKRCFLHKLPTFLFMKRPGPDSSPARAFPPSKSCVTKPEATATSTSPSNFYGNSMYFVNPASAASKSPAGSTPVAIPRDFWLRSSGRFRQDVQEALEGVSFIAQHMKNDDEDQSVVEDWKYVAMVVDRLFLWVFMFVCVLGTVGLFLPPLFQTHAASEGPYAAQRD

Structure (SMILES): Clc1cccc(Cl)c1N=C1NCCN1 [clonidine]
- cases in which treatment is effective / success rate for motor and vocal tics (TS patients): 40%

Structure (SMILES): CN[C@]1(C)[C@H]2CC[C@H](C2)C1(C)C [exo-R-mecamylamine, reference compound]
- effectiveness of isomers compared, particularly center distance and vertical activity [1]: generally more effective at lower doses
- plasma DA levels on sympathetic stimulation vs baseline ([2]; 2.2 Hz): significant increases in plasma DA levels
- stimulation-induced increases in plasma NE levels vs saline ([2]; 2.2 Hz): significantly less
- duration of seizure vs saline comparison group (Sprague-Dawley rats [3]; [13]): did not differ from their saline comparison group
- nicotine-induced seizures (percentage of rats that seized) (Sprague-Dawley rats [3]): prevented nicotine-induced seizures in a dose-dependent manner
- duration and severity of seizure vs saline comparison group (Sprague-Dawley rats [3]; nicotine 3.6 mg/kg): significantly different from their saline comparison groups
- seizure latency vs saline control (Sprague-Dawley rats [3]; nicotine 3.6 mg/kg): significantly longer latency
- stimulation-induced increases in MAP [4]: completely abolished
- increases in heart rate (δ HR) vs saline-treated rats [4]: significantly lowered the increases in heart rate

Structure (SMILES): CN[C@@]1(C)[C@@H]2CC[C@@H](C2)C1(C)C [exo-S-mecamylamine, exo-S-N,2,3,3-tetramethyl-bicycl-o-[2.1.1]heptan-2-amine hydrochloride]
- voltage dependence of inhibition (human α3β4 receptors; 1 μM, -40 mV vs 90 mV [sic]): significant voltage dependence
- residual inhibition: control ACh response 5 min after exposure (human α3β4 receptors; 5 min wash): marked decrease in subsequent control response to ACh
- inhibition of response to 10 μM glutamate+10 μM glycine [5]: transient inhibition
- affinity for binding site compared with cocaine [6]: lower than the affinity of cocaine
- affinity for binding site compared with cocaine [7]: lower than the affinity of cocaine
- stimulation-induced increases in plasma NE levels vs saline ([2]; 2.2 Hz): significantly decreased stimulation-evoked plasma NE increases
- stimulation-induced plasma EPI responses ([2]; 2.2 Hz): significant decrease in stimulation-induced plasma EPI responses
- overall effectiveness on plasma CA and sympathetically-mediated cardiovascular responses ([2]; of the three forms): most effective in reducing plasma CA
- effect on locomotor activity in the last 30 minutes of testing (Swiss-Webster mice [8]; 1 and 3 mg/kg ip): Stimulant effects
- dose producing one half of the maximal depressant activity (Swiss-Webster mice [8]; ip, 20 min before testing, maximal depression = 0 counts in 30 minutes): 8.5 mg/kg
- duration of seizure vs saline comparison group (Sprague-Dawley rats [3]; [13]): significantly different from their saline comparison groups
- seizure latency vs saline comparison group (Sprague-Dawley rats [3]; [13]): significantly longer seizure latency
- nicotine-induced seizures (percentage of rats that seized) (Sprague-Dawley rats [3]): prevented nicotine-induced seizures in a dose-dependent manner
- duration and severity of seizure vs saline comparison group (Sprague-Dawley rats [3]; nicotine 3.6 mg/kg): significantly different from their saline comparison groups
- seizure latency vs saline control (Sprague-Dawley rats [3]; nicotine 3.6 mg/kg): significantly longer latency
- number of rats with nicotine-seizures compared with exo-R-mecamylamine (Sprague-Dawley rats [3]; lowest dose 0.1 mg/kg): fewer rats had nicotine-seizures
- stimulation-induced increases in MAP [4]: completely abolished
- increases in heart rate (δ HR) vs saline-treated rats [4]: significantly lowered the increases in heart rate
- potency rank, stimulation-induced pressor responses ([4]; of the three forms): most potent
- voltage dependence of inhibition (human α3β2 receptors; 5 μM, -40 mV vs 90 mV [sic]): significantly different responses
- residual inhibition: control ACh response 5 min after exposure (human α3β2 receptors; 5 min wash): greatest for β2-containing receptors
- time constant of recovery (human α3β2 receptors; [14]): about 33 min
- voltage dependence of inhibition (human α7 receptors; 10 μM, -40 mV vs 90 mV [sic]): significantly different responses
- residual inhibition: control ACh response 5 min after exposure (human α7 receptors; 5 min wash): least for α7 receptors
- IC50 rank among receptor subtypes (human α7 receptors; control ACh 300 μM, -50 mV): least potent at inhibiting α7 receptors
- initial inhibition (nicotine receptors; co-application of 10 μM and ACh at control concentration): greater than 50%
- off-loading from some receptors (nicotine receptors; compared with exo-R-mecamylamine): slower than exo-R-mecamylamine
- spontaneous locomotor activity, total distance traveled (Sprague-Dawley rats [9]): signigicantly less locomotor depressant effects
- affinity for binding site compared with cocaine [10]: lower than the affinity of cocaine
- inhibition of muscle receptors after wash ([11]; 5-min wash): fully reversed
- effect on muscle receptors ([11]; control ACh 3 μM): very little effect
- voltage dependence of inhibition (human α4β2 receptors; 5 μM, -40 mV vs 90 mV [sic]): significant voltage dependence
- residual inhibition: control ACh response 5 min after exposure (human α4β2 receptors; 5 min wash): greatest for β2-containing receptors
- time constant of recovery, compared with α3β2 (human α4β2 receptors; [14]): similar
- locomotion at 30 minutes vs saline/cocaine (Swiss-Webster mice [12]): significantly different from the result of cocaine alone

Structure (SMILES): O=C(CCCN1CCC(O)(c2ccc(Cl)cc2)CC1)c1ccc(F)cc1 [haloperidol]
- cases in which treatment is effective / success rate for motor and vocal tics (TS patients): about 70%
